Values after ≈ are worked out from the molar mass of the structure shown.
Legend:
HepG2 = assay: Cytotoxicity against Homo sapiens (human) HepG2 cells after 3 days by MTT assay; format: functional, cell-based
A549 = assay: Cytotoxicity against Homo sapiens (human) A549 cells after 3 days by MTT assay; format: functional, cell-based
[1] = Cytotoxicity against Homo sapiens (human) HuCCa1 cells after 3 days by crystal violet staining; format: functional, cell-based, HuCC-A1
MOLT-3 = assay: Cytotoxicity against Homo sapiens (human) MOLT3 cells after 3 days by crystal violet staining; format: functional, cell-based; conditions: MOLT-3, 72 h
[2] = test system: Radical scavenging activity; assay: Antioxidant activity assessed as DPPH radical scavenging activity at 300 ug/mL after 30 min; format: functional
[3] = Antioxidant activity assessed as superoxide radical scavenging activity at 300 ug/mL by NBT reduction assay; format: functional
[4] = Homo sapiens, HepG2, 72 h, read-out: IC50
[5] = Homo sapiens, A549, 72 h, read-out: IC50
[6] = Homo sapiens, HuCC-A1, 72 h, read-out: IC50

Compound | IC50 (HepG2; [4]) [µg/mL] | IC50 (A549; a549) | IC50 ([1]; hucc-a1) | IC50 (MOLT-3) [µg/mL] | Activity [2] [%] | Activity [3] [%] | IC50 (A549; [5]) [µg/mL] | IC50 [1, 6] [µg/mL] | IC50 (HepG2; hepg2)
Cc1cccnc1SC12CC3CC(CC(C3)C1)C2 | 30 (≈ 116 µM) | Not Active | Not Active | 33.3 (≈ 128 µM) | 19.6 | 10.8 | – | – | –
c1ccc(-c2ccnc(SC34CC5CC(CC(C5)C3)C4)c2)cc1 | 46.5 (≈ 145 µM) | Not Active | Not Active | 31.1 (≈ 96.7 µM) | 6.95 | 32 | – | – | –
c1ccc(-c2ccc(SC34CC5CC(CC(C5)C3)C4)cn2)cc1 | – | – | – | – | 8.77 | 31.6 | – | – | –
c1ccc(-c2cccnc2SC23CC4CC(CC(C4)C2)C3)cc1 | – | – | – | – | 11.1 | 26.7 | – | – | –
c1ccc(-c2ccncc2SC23CC4CC(CC(C4)C2)C3)cc1 [3-(1-ADAMANTYLTHIO)-4-PHENYLPYRIDINE] | 21.5 (≈ 66.9 µM) | – | – | 8.02 (≈ 24.9 µM) | 12.2 | 37.5 | 24 (≈ 74.7 µM) | 29 (≈ 90.2 µM) | –
c1ccc(-c2cc(SC34CC5CC(CC(C5)C3)C4)ccn2)cc1 [4-(1-ADAMANTYLTHIO)-2-PHENYLPYRIDINE] | – | – | – | 28.6 (≈ 88.8 µM) | 30.2 | 32.1 | 38 (≈ 118 µM) | 49 (≈ 152 µM) | Not Active
Cc1cncc(SC23CC4CC(CC(C4)C2)C3)c1 [5-(1-ADAMANTYLTHIO)-3-PICOLINE] | 26.5 (≈ 102 µM) | – | – | 15.8 (≈ 61.1 µM) | 7.96 | 36.9 | 29 (≈ 112 µM) | 34 (≈ 131 µM) | –
c1ccc(-c2cccc(SC34CC5CC(CC(C5)C3)C4)n2)cc1 [6-(1-ADAMANTYLTHIO)-2-PHENYLPYRIDINE] | 48.5 (≈ 151 µM) | – | Not Active | 32.2 (≈ 100 µM) | 7.37 | 25.9 | 44 (≈ 137 µM) | – | –
c1ccc(-c2ccc(SC34CC5CC(CC(C5)C3)C4)nc2)cc1 [6-(1-ADAMANTYLTHIO)-3-PHENYLPYRIDINE] | – | – | Not Active | 32.5 (≈ 101 µM) | 10.6 | 18 | 44 (≈ 137 µM) | – | Not Active
Cc1ccc(SC23CC4CC(CC(C4)C2)C3)nc1 [6-(1-ADAMANTYLTHIO)-3-PICOLINE] | – | Not Active | Not Active | 27.2 (≈ 105 µM) | 7.69 | 28.6 | – | – | Not Active
COc1cccc2c1C(=O)c1c(O)c3c(c(O)c1C2=O)C[C@@](O)(C(=O)CO)C[C@@H]3O[C@H]1C[C@H](N)[C@H](O)[C@H](C)O1 [DOXORUBICIN] | 0.23 (≈ 0.423 µM) | – | – | – | – | – | 0.39 (≈ 0.718 µM) | 0.45 (≈ 0.828 µM) | –
COc1cc([C@@H]2c3cc4c(cc3[C@@H](O[C@@H]3O[C@@H]5CO[C@@H](C)O[C@H]5[C@H](O)[C@H]3O)[C@H]3COC(=O)[C@H]23)OCO4)cc(OC)c1O [ETOPOSIDE] | 12 (≈ 20.4 µM) | – | – | 0.019 (≈ 0.0323 µM) | – | – | – | – | –
